{"source": "patent US6083941A", "about": "“Inhibition of NMDA receptor activity by pregnenolone sulfate derivatives” (Trustees of Boston University, priority 1998, dated 2000)", "key": {"[1]": {"tested_on": "focal cerebral ischemia (MCA occlusion) in rats", "test": "Middle cerebral artery occlusion cerebral ischemia test", "assay_type": "in vivo", "conditions": "for cortical infarct volume: treatment delayed until 30 min. after initiation of ischemia", "protocol": "Male Wistar rats (200-250 g) were used. Anesthesia was induced with 3% halothane in 70% nitrogen balanced with oxygen. Rats were intubated and artificially ventilated with 2% halothane in a mixture of 30% oxygen and 70% nitrogen. Body temperature was maintained at 37.5° C. during surgery by means of a warming pad with a rectal probe connected to a feedback control unit. Both common carotid arteries (CCA) were isolated, and a loose silk ligature was placed around each artery. A vertical skin incision was made between the left orbit and the auditory canal. Under constant saline irrigation the posterior part of the zygoma was removed and a small opening (2.0/2.5 mm) drilled dorso-rostrally to the foramen ovale. The dura was opened with a microsurgical hook and the brain gently retracted with a small spatula to expose the bifurcation of the internal carotid artery and middle cerebral artery. After permanent ligation of the ipsilateral CCA, the middle cerebral artery (MCA) was coagulated from its origin to the olfactory tract. The contralateral CCA was occluded for a period of 2 hours. A bolus intravenous injection (1 ml) of test compound dissolved in 5% DMSO, 10% 2-hydroxy propyl-β-cyclodextrin in 100 mM sodium phosphate buffer, pH 7.4, was given either immediately after MCA occlusion or 30 minutes after MCA occlusion. An intravenous infusion of the test drug in the same vehicle was initiated immediately after the bolus injection. Twenty-two hours after MCA occlusion rats were euthanized, and the brains were sectioned into 2 mm slices and stained with tetrazoliumred (2,3,5-triphenyl tetrazolium chloride). Areas of brain damage were assessed using an image analyzer with the NIH Image program, and the volumes of cortical and subcortical infarction were estimated by integration of areas in serial.\nPregnanolone hemisuccinate produced significant neuroprotection in the MCAO cerebral ischemia model. […] Focal cerebral ischemia was induced in the left hemisphere of male rats by proximal coagulation of the middle cerebral artery. In addition, the ipsilateral common carotid artery was permanently occluded and the contralateral common carotid artery was occluded for 2 h. Five minutes after initiation of ischemia, rats were injected with an i.v. loading dose of 6.9 mg/kg 5β3αHS, followed by i.v. infusion of 5β3αHS at 6.9 mg/kg/h. […] Control rats were treated with vehicle. Infusion of 5β3αHS was continued for an additional 20 h, at which time the rats were sacrificed, and their brains were sliced and stained with the vital stain 2,3,5 triphenyl tetrazolium Cl."}, "NMDA receptor": {"tested_on": "NMDA receptor", "test": "Electrophysiology, NMDA response in rat hippocampal neurons", "assay_type": "cell-based", "conditions": "FIG. 4; average of 6 experiments", "protocol": "Experiments were carried out in 35-mm tissue culture dishes on the stage of an inverted phase contrast microscope. Whole cell currents were recorded by the whole cell variant of the patch clamp technique (Hamill, O. P., et al., Pfagers Arch. 891:85-100 (1981)). Patch electrodes had tip openings of about […] and resistances of 3-8 M.OMEGA. using an intracellular solution comprised of the following (in mM): 140 CsCl, 11 EGTA, and 10 HEPES (pH adjusted to 7.2 with CsOH). In experiments in which a high concentration of glycine was used, the intracellular solution was replaced with a low chloride (10 mM) pipette solution. This solution contained the following (in mM): 140 potassium gluconate, 10 KCl, 8 sodium gluconate, 11 EGTA, and 10 HEPES (pH adjusted to 7.2 with KOH). […]\nThe degree of modulation of the amino acid response by steroid, the percentage change, is expressed as [(I'/I)-1]×100%, where I is the average of control responses obtained from the same cell before application and after washout of steroid and I' is the agonist-induced current in the presence of steroid. Throughout, results are expressed as mean±S.E.; statistical comparison of groups was carried out using Student's t test.\nThe electrophysiology of additional pregnenolone derivatives were analyzed as described in Example 1. […]"}, "[2]": {"conditions": "i.v. 6.9 mg/kg loading dose then 6.9 mg/kg/h, started 5 min. after onset of ischemia, versus vehicle"}}}
{"smiles": "CC(=O)[C@H]1CC[C@H]2[C@@H]3CC[C@@H]4C[C@H](OC(=O)CCC(=O)O)CC[C@]4(C)[C@H]3CC[C@]12C", "note": "[5β3αHS, 3α-hydroxy-5β-pregnan-20-one hemisuccinate]", "values": [{"measurement": "sedation", "setting": "[1]; i.v. 6.9 mg/kg loading dose then 6.9 mg/kg/h", "result": "Little or no sedation"}, {"measurement": "reduction in cortical infarct volume", "setting": "[1]; [2]", "result": "47±10", "unit": "%"}, {"measurement": "reduction in subcortical infarct volume", "setting": "[1]; [2]", "result": "26±6", "unit": "%"}, {"measurement": "cortical infarct volume", "setting": "[1]", "result": "significantly reduced"}, {"measurement": "cortical infarct volume", "setting": "[1]; listed as Pregnanolone hemisuccinate", "result": "significantly decreased"}, {"measurement": "infarction volumes of the cortical and subcortical brain regions", "setting": "[1]; treatment immediately after cerebral ischemia", "result": "significantly decreased"}, {"measurement": "% inhibition of NMDA response in rat hippocampal cells", "setting": "NMDA receptor", "result": "approximately 20%"}]}
